Data on six molecules can be found in patent US9079974B2, “GH-RH analogs with potent agonistic effects” (The University of Miami, priority 2011, dated 2015).

As a reminder, the IC50 is the midpoint of a concentration-inhibition curve. Higher therefore signals a need for much substance.

Assay [1] deals with T1, GHRH receptor (Homo sapiens, UniProt Q02643).
T1 construct: Normal human pituitaries were purchased from the National Hormone and Peptide Program; tissue National Hormone and Peptide Program (A. F. Parlow); host or cells: normal human pituitary, membrane fraction
T1 sequence (Q02643 23-423): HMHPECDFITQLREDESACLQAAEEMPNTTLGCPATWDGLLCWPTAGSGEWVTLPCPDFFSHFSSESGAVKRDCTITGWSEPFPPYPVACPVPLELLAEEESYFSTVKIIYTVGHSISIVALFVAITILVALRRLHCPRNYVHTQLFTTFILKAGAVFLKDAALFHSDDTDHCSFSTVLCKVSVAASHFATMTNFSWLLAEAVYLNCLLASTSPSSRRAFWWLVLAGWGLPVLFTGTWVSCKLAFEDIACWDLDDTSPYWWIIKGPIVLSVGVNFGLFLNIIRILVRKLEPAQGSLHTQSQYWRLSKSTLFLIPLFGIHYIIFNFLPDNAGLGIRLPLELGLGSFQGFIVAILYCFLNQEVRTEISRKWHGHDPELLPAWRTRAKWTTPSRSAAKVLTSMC
In words: GHRH receptor binding, [His1,125I-Tyr10,Nle27]hGHRH(1-32)NH2 ligand competition, human pituitary membrane homogenates (Table 6). To be noted: [His1,125I-Tyr10,Nle27]hGHRH(1-32)NH2, human pituitary membranes. The procedure:
Receptor binding assay Ligand competition assay with ^125I-labeled [His^1, Nle^27]hGH-RH(1-32)-NH2 was used to determine the binding affinities of the novel hGH-RH agonists to membrane receptors of rat anterior pituitary cells. The methods used have been described in detail (Halmos G, et al. Receptor 3: 87-97, 1993), here by incorporated by reference. Briefly, radioidonated [His^1, Nle^27]hGH-RH(1-32)-NH2 is prepared by the chloramines-T method. […] IC50 is the dose of the tested peptides causing 50% inhibition of specific binding to receptors.
Preparation of human pituitary membrane fraction and receptor binding of GHRH agonists were performed as previously described, by using a sensitive in vitro ligand competition assay based on binding of ^125I-labeled [His^1, Nle^27]hGHRH(1-32)NH2 to human pituitary membrane homogenates. Normal human pituitaries were purchased from the National Hormone and Peptide Program (A. F. Parlow, Los Angeles, County Harbor—UCLA Medical Center, Torrance, Calif.).

Assay [2] addresses T1, GHRH receptor. In words: GHRH receptor binding, 125I-labeled JV-1-42 ligand competition, human pituitary membrane homogenates (Table 7). Conditions: 125I-labeled JV-1-42, human pituitary membranes. The procedure:
Preparation of human pituitary membrane fraction and receptor binding of GHRH agonists were performed as previously described, by using a sensitive in vitro ligand competition assay based on binding of ^125I-labeled JV-1-42 to human pituitary membrane homogenates. Normal human pituitaries were purchased from the National Hormone and Peptide Program (A. F. Parlow, Los Angeles, County Harbor-UCLA Medical Center, Torrance, Calif.).

The test system of assay [3] is GH release. In words: In vivo GH release after intravenous administration. Conditions: rat, i.v. The method, then:
The blood samples are centrifuged, plasma is removed and the GH level is measured by ELISA.

Assay [4] has as its system GH release. In words: In vivo GH release after subcutaneous administration. To be noted: rat, s.c. The method, then:
Blood samples are taken from the jugular vein; 5, 15 and 30 minutes or only 15 and 30 minutes after the injection. The blood samples are centrifuged, plasma is removed and the GH level is measured by ELISA. The results are summarized in terms of potency in Table 9.

Molecules are shown by their SMILES. “Also recorded” adds a separate entry of the source. Square brackets hold non-standard residues; d marks the D form. Peptide text beside a SMILES is read from it. * marks the point of attachment. Desaminotyrosyl = O=C(CCc1ccc(O)cc1)*; NMeY = CN[C@@H](Cc1ccc(O)cc1)C(=O)O; hArg = N=C(N)NCCCC[C@H](N)C(=O)O; Agmatine = N=C(N)NCCCCN*; Nle = CCCC[C@H](N)C(=O)O; Orn = NCCC[C@H](N)C(=O)O; Abu = CC[C@H](N)C(=O)O; Aoc = NCCCCCCCC(=O)O

In turn, `CCCC[C@H](NC(=O)[C@@H](NC(=O)[C@H](CC(=O)O)NC(=O)[C@H](CCC(N)=O)NC(=O)[C@H](CC(C)C)NC(=O)[C@H](CC(C)C)NC(=O)[C@H](CCCN)NC(=O)[C@H](CCCNC(=N)N)NC(=O)[C@H](C)NC(=O)[C@H](CO)NC(=O)[C@H](CC(C)C)NC(=O)[C@H](CCC(N)=O)NC(=O)[C@H](CC)NC(=O)[C@H](CC(C)C)NC(=O)[C@@H](NC(=O)[C@H](CCCN)NC(=O)[C@H](CCCNC(=N)N)NC(=O)[C@H](Cc1ccc(O)cc1)NC(=O)[C@H](CO)NC(=O)[C@H](CC(N)=O)NC(=O)[C@@H](NC(=O)[C@H](Cc1ccccc1)NC(=O)[C@@H](NC(=O)[C@H](C)NC(=O)[C@H](CC(=O)O)NC(=O)[C@H](C)NC(=O)CCc1ccc(O)cc1)[C@@H](C)CC)[C@@H](C)O)C(C)C)[C@@H](C)CC)C(=O)N[C@@H](CC(=O)O)C(=O)NCCCCNC(=N)N` [JI-34, reference compound] (Desaminotyrosyl-ADAIFTNSYR[Orn]VL[Abu]QLSAR[Orn]LLQDI[Nle]D-Agmatine; N-terminus and C-terminus assumed) gave an IC50 at GHRH receptor [1] of 1.37 nM.
On the same count and under the same terms, the same measure for `CCCC[C@H](NC(=O)[C@@H](NC(=O)[C@H](CC(=O)O)NC(=O)[C@H](CCC(N)=O)NC(=O)[C@H](CC(C)C)NC(=O)[C@H](CC(C)C)NC(=O)[C@H](CCCN)NC(=O)[C@H](CCCNC(=N)N)NC(=O)[C@H](C)NC(=O)[C@H](CO)NC(=O)[C@H](CC(C)C)NC(=O)[C@H](CCC(N)=O)NC(=O)[C@H](CC)NC(=O)[C@H](CC(C)C)NC(=O)[C@@H](NC(=O)[C@H](CCCN)NC(=O)[C@H](CCCNC(=N)N)NC(=O)[C@H](Cc1ccc(O)cc1)NC(=O)[C@H](CO)NC(=O)[C@@H](NC(=O)[C@@H](NC(=O)[C@H](Cc1ccccc1)NC(=O)[C@@H](NC(=O)[C@H](C)NC(=O)[C@H](CC(=O)O)NC(=O)[C@H](C)NC(=O)CCc1ccc(O)cc1)[C@@H](C)CC)[C@@H](C)O)[C@@H](C)O)C(C)C)[C@@H](C)CC)C(=O)N[C@@H](CC(=O)O)C(=O)NCCCCNC(=N)N` [JI-36, reference compound] (Desaminotyrosyl-ADAIFTTSYR[Orn]VL[Abu]QLSAR[Orn]LLQDI[Nle]D-Agmatine; N-terminus and C-terminus assumed): 1.82 nM; for `CCCC[C@H](NC(=O)[C@@H](NC(=O)[C@H](CC(=O)O)NC(=O)[C@H](CCC(N)=O)NC(=O)[C@H](CC(C)C)NC(=O)[C@H](CC(C)C)NC(=O)[C@H](CCCN)NC(=O)[C@H](CCCNC(=N)N)NC(=O)[C@H](C)NC(=O)[C@H](CO)NC(=O)[C@H](CC(C)C)NC(=O)[C@H](CCC(N)=O)NC(=O)[C@H](CC)NC(=O)[C@H](CC(C)C)NC(=O)[C@@H](NC(=O)[C@H](CCCN)NC(=O)[C@H](CCCNC(=N)N)NC(=O)[C@H](Cc1ccc(O)cc1)NC(=O)[C@H](CO)NC(=O)[C@H](CCC(N)=O)NC(=O)[C@@H](NC(=O)[C@H](Cc1ccccc1)NC(=O)[C@@H](NC(=O)[C@H](C)NC(=O)[C@H](CC(=O)O)NC(=O)[C@@H](C)NC(=O)CCc1ccc(O)cc1)[C@@H](C)CC)[C@@H](C)O)C(C)C)[C@@H](C)CC)C(=O)N[C@@H](CC(=O)O)C(=O)N[C@@H](CCCNC(=N)N)C(=O)NCCCCCCCC(N)=O` [Peptide P-21304, [Dat^1, D-Ala^2, Gln^8, Orn^12, Abu^15, Orn^21, Nle^27, Asp^28, Amc^30]hGH-RH(1-30)NH2] (Desaminotyrosyl-[dA]DAIFTQSYR[Orn]VL[Abu]QLSAR[Orn]LLQDI[Nle]DR[Aoc]-NH2): 0.08 nM.
Same read-out and setting: the same measure for `CCCC[C@H](NC(=O)[C@@H](NC(=O)[C@H](CC(=O)O)NC(=O)[C@H](CCC(N)=O)NC(=O)[C@H](CC(C)C)NC(=O)[C@H](CC(C)C)NC(=O)[C@H](CCCN)NC(=O)[C@H](CCCNC(=N)N)NC(=O)[C@H](C)NC(=O)[C@H](CO)NC(=O)[C@H](CC(C)C)NC(=O)[C@H](CCC(N)=O)NC(=O)[C@H](CC)NC(=O)[C@H](CC(C)C)NC(=O)[C@@H](NC(=O)[C@H](CCCN)NC(=O)[C@H](CCCNC(=N)N)NC(=O)[C@H](Cc1ccc(O)cc1)NC(=O)[C@H](CO)NC(=O)[C@@H](NC(=O)[C@@H](NC(=O)[C@H](Cc1ccccc1)NC(=O)[C@@H](NC(=O)[C@H](C)NC(=O)[C@H](CC(=O)O)NC(=O)[C@@H](C)NC(=O)CCc1ccc(O)cc1)[C@@H](C)CC)[C@@H](C)O)[C@@H](C)O)C(C)C)[C@@H](C)CC)C(=O)N[C@@H](CC(=O)O)C(=O)N[C@@H](CCCNC(=N)N)C(=O)N[C@@H](CCCCNC(=N)N)C(N)=O` [Peptide P-23254, [Dat^1, D-Ala^2, Thr^8, Orn^12, Abu^15, Orn^21, Nle^27, Asp^28, Har^30]hGH-RH(1-30)NH2] (Desaminotyrosyl-[dA]DAIFTTSYR[Orn]VL[Abu]QLSAR[Orn]LLQDI[Nle]DR[hArg]-NH2): 0.07 nM; for `CCCC[C@H](NC(=O)[C@@H](NC(=O)[C@H](CC(=O)O)NC(=O)[C@H](CCC(N)=O)NC(=O)[C@H](CC(C)C)NC(=O)[C@H](CC(C)C)NC(=O)[C@H](CCCN)NC(=O)[C@H](CCCNC(=N)N)NC(=O)[C@H](C)NC(=O)[C@H](CO)NC(=O)[C@H](CC(C)C)NC(=O)[C@H](CCC(N)=O)NC(=O)[C@H](CC)NC(=O)[C@H](CC(C)C)NC(=O)[C@@H](NC(=O)[C@H](CCCN)NC(=O)[C@H](CCCNC(=N)N)NC(=O)[C@H](Cc1ccc(O)cc1)NC(=O)[C@H](CO)NC(=O)[C@H](C)NC(=O)[C@@H](NC(=O)[C@H](Cc1ccccc1)NC(=O)[C@@H](NC(=O)[C@H](C)NC(=O)[C@H](CC(=O)O)NC(=O)[C@@H](C)NC(=O)CCc1ccc(O)cc1)[C@@H](C)CC)[C@@H](C)O)C(C)C)[C@@H](C)CC)C(=O)N[C@@H](CC(=O)O)C(=O)N[C@@H](CCCNC(=N)N)C(=O)N[C@@H](CCCCNC(=N)N)C(N)=O` [Peptide P-23256, [Dat^1, D-Ala^2, Ala^8, Orn^12, Abu^15, Orn^21, Nle^27, Asp^28, Har^30]hGH-RH(1-30)NH2] (Desaminotyrosyl-[dA]DAIFTASYR[Orn]VL[Abu]QLSAR[Orn]LLQDI[Nle]DR[hArg]-NH2): 0.04 nM.
The molecule `CCCC[C@H](NC(=O)[C@@H](NC(=O)[C@H](CC(=O)O)NC(=O)[C@H](CCC(N)=O)NC(=O)[C@H](CC(C)C)NC(=O)[C@H](CC(C)C)NC(=O)[C@H](CCCN)NC(=O)[C@H](CCCNC(=N)N)NC(=O)[C@H](C)NC(=O)[C@H](CO)NC(=O)[C@H](CC(C)C)NC(=O)[C@H](CCC(N)=O)NC(=O)[C@H](CC)NC(=O)[C@H](CC(C)C)NC(=O)[C@@H](NC(=O)[C@H](CCCN)NC(=O)[C@H](CCCNC(=N)N)NC(=O)[C@H](Cc1ccc(O)cc1)NC(=O)[C@H](CO)NC(=O)[C@H](CCC(N)=O)NC(=O)[C@@H](NC(=O)[C@H](Cc1ccccc1)NC(=O)[C@@H](NC(=O)[C@H](C)NC(=O)[C@H](CC(=O)O)NC(=O)[C@@H](C)NC(=O)[C@H](Cc1ccc(O)cc1)NC)[C@@H](C)CC)[C@@H](C)O)C(C)C)[C@@H](C)CC)C(=O)N[C@@H](CC(=O)O)C(=O)N[C@@H](CCCNC(=N)N)C(=O)NC` [Peptide P-27403, [N—Me-Tyr^1, D-Ala^2, Gln^8, Orn^12, Abu^15, Orn^21, Nle^27, Asp^28]hGH-RH(1-29)NH—CH3] (H-[NMeY][dA]DAIFTQSYR[Orn]VL[Abu]QLSAR[Orn]LLQDI[Nle]DR-NHMe) gave a concentration for half-maximal inhibition (IC50) on GHRH receptor [2] of 0.16 nM. For the same molecule, the “GH response after intravenous administration (in words)” value with GH release [3] is given as “most potent”. Further, the “GH response after subcutaneous administration (in words)” value in the assay with GH release [4] is reported as “unusually high responses; also recorded: especially greater growth hormone levels than hGH-RH or JI-38”.
